# Data reported in PMC5605198, “MELK is not necessary for the proliferation of basal-like breast cancer cells” (eLife, 2017).
# Read-outs that look alike come from different tables or passages of the source.
# Experiments:
# mTOR = mTOR (Homo sapiens, UniProt P42345); assay: Z’-LYTE enzymatic assay; conditions: Z’-LYTE assay at [ATP]=apparent Km; read-out: Biochemical IC50 mTOR
# MELK [1] = target: T1, MELK (Homo sapiens, UniProt Q14680); assay: Z’-LYTE enzymatic assay; type: biochemical
# CDK7 = CDK7 (Homo sapiens, UniProt P50613); assay: Adapta kinase assay; conditions: Adapta assay at [ATP]=apparent Km; read-out: Biochemical IC50 CDK7
# GSK3A = GSK3A (Homo sapiens, UniProt P49840); assay: Z’-LYTE enzymatic assay; conditions: Z’-LYTE assay at [ATP]=apparent Km; read-out: Biochemical IC50 GSK3A
# MELK [2] = target: T1, MELK; assay: KINOMEscan MELK pull-down; type: binding
# Method: Based on biochemical (KINOMEscan) and cellular (KiNativ) kinase profiling of our in-house library of structurally diverse ATP-competitive kinase inhibitors, we identified several chemotypes that were prioritized for further characterization and development. In particular, we focused on JW-7-25-1 (Figure 1A), a benzonaphthyridinone derivative that inhibited MELK pull-down by 100% (KINOMEscan) at 10 μM.
# MDA-MB-468 = assay: Cell proliferation assay (CellTiter-Glo); conditions: Homo sapiens
# Flt3 = test system: Flt3; parameters: method as in Johnson et al., 2015; conditions: ref Johnson et al., 2015; cited from earlier work
# ZR-75-1 = assay: Cell proliferation assay (CellTiter-Glo); conditions: Homo sapiens, ZR-75-1, 72 h, read-out: 3-day antiproliferative IC50
# MELK [3] = target: T1, MELK; assay: Inhibitor-induced MELK degradation, immunoblot; conditions: MDA-MB-468 cells; pretreatment carfilzomib (400 nM) or MLN4924 (1 μM) 4 hours, then MELK inhibitor 4 hours
# [4] = test system: MDA-MB-468 (second source); assay: Cell proliferation assay (CellTiter-Glo); conditions: Homo sapiens, MDA-MB-468, 168 h, read-out: 7-day antiproliferative IC50
# BT-549 = assay: Cell proliferation assay (CellTiter-Glo); conditions: Homo sapiens
# T-47D = assay: Cell proliferation assay (CellTiter-Glo); conditions: Homo sapiens, T47D
# HCC70 = assay: Cell proliferation assay (CellTiter-Glo); conditions: Homo sapiens
# MCF7 = assay: Cell proliferation assay (CellTiter-Glo); conditions: Homo sapiens
# FKBP12^F36V-MELK(sg3R) = assay: dTAG-induced degradation, immunoblot; type: cell-based; conditions: MELK−/− MDA-MB-468-FKBP12^F36V-MELK(sg3R) cells; for duration of sustained degradation of FKBP12^F36V-MELK(sg3R): 500 nM
# Method: (§1) Four dTAG molecules (7, 13, 36 and 47) that vary in linker length and chemical structure were tested for their efficiency at depleting FKBP12^F36V-MELK(sg3R) (Figure 4A, Figure 4—figure supplement 3).
# Figure 4. […] (A) Chemical structure of heterobifunctional dTAG molecule dTAG-47. See also Figure 4—figure supplement 3 for the chemical structures of dTAG-7, dTAG-13 and dTAG-36. (B) Immunoblots for MELK and GAPDH after treatment of dTAG-7, 13, 36, and 47 at indicated concentrations in MELK−/− MDA-MB-468-FKBP12^F36V-MELK(sg3R) cells for 4 hours. See Figure 4—figure supplement 1 for details of the generation of MELK−/− MDA-MB-468-FKBP12^F36V-MELK(sg3R) clones. (C) Same as in 4B, but with treatment at 500 nM and extended treatment times for 14, 24, 48, and 72 hours. (D) Changes in abundance of 7270 proteins (peptide count ≥2) comparing MELK−/− MDA-MB-468-FKBP12^F36V-MELK cells treated with dTAG-7 (250 nM) or DMSO for 1 hour, versus p-value (dTAG-7: triplicate, DMSO: duplicate, limma moderated t-test). See also Figure 4—source datas 1 and 2 for the original and the processed data. (E) Crystal violet staining image showing parental MDA-MB-468 cells and MELK−/− MDA-MB-468-FKBP12^F36V-MELK(sg3R) cells after treatment with DMSO or 500 nM of dTAG-47 for 9 days. Immunoblots showing MELK and GAPDH from a duplicate plate on Day 9 confirmed sustained depletion of FKBP12^F36V-MELK(sg3R). These are representative data from one of two independent experiments. Figure 4—source data 1. Raw integrated ion intensities from quantitative multiplexed proteomics. Figure 4—source data 2. Processed Data and Statistical Analysis by limma (topTable). Figure 4—figure supplement 1. Single clones selected from MDA-MB-468-FKBP12^F36V-MELK(sg3R) cells subject to CRISPR/Cas9-mediated knockout of endogenous MELK. Immunoblots for MELK and GAPDH in single cell clones selected from MDA-MB-468-FKBP12^F36V-MELK(sg3R) transfected with Cas9/sgMELK-3 to knockout endogenous MELK. Clone 1D4 is clone 1 and clone 1A3 is clone 2 in Figure 4. Clone 1D4 was confirmed with heterozygous −1 and +1 indels; clone 1A3 was confirmed with homozygous −1 deletions. [drawing 5] Figure 4—figure supplement 2. […] (A) Immunoblots for MELK, cyclin B1 and GAPDH in asynchronous versus M-phase arrested MDA-MB-468 cells and MDA-MB-468-FKBP12^F36V-MELK(sg3R) cells (clone 1). […] Chemical structures of dTAG molecules. FKBP12^F36V-binding ligands conjugated by variable linkers to thalidomide or pomalidomide, including (A) dTAG-7, (B) dTAG-13 and (C) dTAG-36 are capable of inducing degradation of FKBP12^F36V-tagged proteins of interest. [drawing 7]
# [5] = test system: MELK−/− MDA-MB-468-FKBP12^F36V-MELK(sg3R) cells; assay: 9-day proliferation assay, crystal violet staining; type: cell-based; conditions: 500 nM, 9 days, two clones
# Method: as §1
# Figure 4. […] (A) Chemical structure of heterobifunctional dTAG molecule dTAG-47. See also Figure 4—figure supplement 3 for the chemical structures of dTAG-7, dTAG-13 and dTAG-36. (B) Immunoblots for MELK and GAPDH after treatment of dTAG-7, 13, 36, and 47 at indicated concentrations in MELK−/− MDA-MB-468-FKBP12^F36V-MELK(sg3R) cells for 4 hours. See Figure 4—figure supplement 1 for details of the generation of MELK−/− MDA-MB-468-FKBP12^F36V-MELK(sg3R) clones. (C) Same as in 4B, but with treatment at 500 nM and extended treatment times for 14, 24, 48, and 72 hours. (D) Changes in abundance of 7270 proteins (peptide count ≥2) comparing MELK−/− MDA-MB-468-FKBP12^F36V-MELK cells treated with dTAG-7 (250 nM) or DMSO for 1 hour, versus p-value (dTAG-7: triplicate, DMSO: duplicate, limma moderated t-test). See also Figure 4—source datas 1 and 2 for the original and the processed data. (E) Crystal violet staining image showing parental MDA-MB-468 cells and MELK−/− MDA-MB-468-FKBP12^F36V-MELK(sg3R) cells after treatment with DMSO or 500 nM of dTAG-47 for 9 days. […] Raw integrated ion intensities from quantitative multiplexed proteomics. […]
# [6] = MDA-MB-468, 72 h, read-out: 3-day antiproliferative IC50
# [7] = BT-549, 72 h, read-out: 3-day antiproliferative IC50
# [8] = BT-549, 168 h, read-out: 7-day antiproliferative IC50
# [9] = 72 h, read-out: 3-day antiproliferative IC50
# [10] = 168 h, read-out: 7-day antiproliferative IC50
# [11] = MDA-MB-468, 168 h, read-out: 7-day antiproliferative IC50
# [12] = HCC70, 72 h, read-out: 3-day antiproliferative IC50
# [13] = HCC70, 168 h, read-out: 7-day antiproliferative IC50
# [14] = MCF7, 72 h, read-out: 3-day antiproliferative IC50
# T1 sequence (Q14680 whole entry): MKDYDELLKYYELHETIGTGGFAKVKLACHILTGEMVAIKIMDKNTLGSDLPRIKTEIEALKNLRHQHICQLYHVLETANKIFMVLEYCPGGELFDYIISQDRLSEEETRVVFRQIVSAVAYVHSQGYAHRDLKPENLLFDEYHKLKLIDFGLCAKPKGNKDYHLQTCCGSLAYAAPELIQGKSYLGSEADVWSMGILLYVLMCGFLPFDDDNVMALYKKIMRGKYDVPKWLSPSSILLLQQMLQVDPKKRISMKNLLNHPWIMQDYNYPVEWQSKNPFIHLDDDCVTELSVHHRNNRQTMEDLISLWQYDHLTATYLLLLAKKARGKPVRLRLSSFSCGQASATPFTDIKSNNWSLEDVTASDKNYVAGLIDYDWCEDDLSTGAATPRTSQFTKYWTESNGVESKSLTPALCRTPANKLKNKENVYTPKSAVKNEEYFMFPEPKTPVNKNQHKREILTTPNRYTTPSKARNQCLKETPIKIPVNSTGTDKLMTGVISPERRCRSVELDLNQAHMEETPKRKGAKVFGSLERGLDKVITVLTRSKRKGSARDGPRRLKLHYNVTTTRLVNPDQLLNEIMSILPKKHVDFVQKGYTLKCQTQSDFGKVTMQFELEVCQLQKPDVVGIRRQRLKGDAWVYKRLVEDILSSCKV
# Chain of GSK3A (P49840 whole entry): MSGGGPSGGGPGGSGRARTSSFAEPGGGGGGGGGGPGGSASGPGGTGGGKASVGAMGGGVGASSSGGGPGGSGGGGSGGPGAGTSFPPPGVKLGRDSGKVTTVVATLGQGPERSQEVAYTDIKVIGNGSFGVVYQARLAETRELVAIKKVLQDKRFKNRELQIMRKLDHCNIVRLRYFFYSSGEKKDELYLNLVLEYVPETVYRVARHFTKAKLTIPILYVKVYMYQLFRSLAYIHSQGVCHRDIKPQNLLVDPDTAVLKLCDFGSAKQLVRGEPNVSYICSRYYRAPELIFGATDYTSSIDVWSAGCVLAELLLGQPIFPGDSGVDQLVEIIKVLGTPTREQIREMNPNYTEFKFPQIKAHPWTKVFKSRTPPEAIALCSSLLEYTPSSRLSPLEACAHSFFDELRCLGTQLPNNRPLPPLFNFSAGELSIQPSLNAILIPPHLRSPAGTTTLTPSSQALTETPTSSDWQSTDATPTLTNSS
# Chain of CDK7 (P50613 whole entry): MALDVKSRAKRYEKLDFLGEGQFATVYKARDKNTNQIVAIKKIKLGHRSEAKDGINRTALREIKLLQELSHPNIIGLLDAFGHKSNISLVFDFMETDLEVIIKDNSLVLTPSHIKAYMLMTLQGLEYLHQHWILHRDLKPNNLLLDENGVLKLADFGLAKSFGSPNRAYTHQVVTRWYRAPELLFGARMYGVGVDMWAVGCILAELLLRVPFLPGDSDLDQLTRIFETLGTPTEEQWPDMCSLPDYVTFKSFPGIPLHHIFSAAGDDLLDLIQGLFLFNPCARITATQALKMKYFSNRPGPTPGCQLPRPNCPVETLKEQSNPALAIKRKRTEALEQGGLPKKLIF
# Chain of CDK7 (P51946 whole entry partner): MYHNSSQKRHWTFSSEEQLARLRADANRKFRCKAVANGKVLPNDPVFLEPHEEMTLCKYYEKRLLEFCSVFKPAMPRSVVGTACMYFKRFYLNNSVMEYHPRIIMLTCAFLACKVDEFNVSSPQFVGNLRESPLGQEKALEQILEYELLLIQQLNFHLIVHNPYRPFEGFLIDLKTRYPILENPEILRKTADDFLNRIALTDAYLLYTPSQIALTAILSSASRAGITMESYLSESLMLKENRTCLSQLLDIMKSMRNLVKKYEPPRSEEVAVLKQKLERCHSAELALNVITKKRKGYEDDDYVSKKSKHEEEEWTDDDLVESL
# Chain of CDK7 (P51948 whole entry partner): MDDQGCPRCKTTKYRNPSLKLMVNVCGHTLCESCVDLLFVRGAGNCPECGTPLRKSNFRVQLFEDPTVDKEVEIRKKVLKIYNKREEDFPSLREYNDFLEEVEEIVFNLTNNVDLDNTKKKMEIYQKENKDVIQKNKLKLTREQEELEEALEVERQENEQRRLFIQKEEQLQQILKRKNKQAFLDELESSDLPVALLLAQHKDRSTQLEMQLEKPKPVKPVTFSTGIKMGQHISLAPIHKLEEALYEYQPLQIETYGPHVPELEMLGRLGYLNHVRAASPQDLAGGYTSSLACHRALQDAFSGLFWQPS
smiles,measurement,setting,value
O=c1ccc2cnc3ccc(-c4ccc(O)cc4)cc3c2n1-c1ccc(N2CCNCC2)c(C(F)(F)F)c1 [JW-7-25-1],IC50,mTOR,5.5 nM
same,IC50,"MELK [1]; Z’-LYTE assay at [ATP]=apparent Km, read-out: Biochemical IC50 MELK",5 nM
same,IC50,CDK7,63.4 nM
same,IC50,GSK3A,12.3 nM
same,inhibition at 10 µM,MELK [2],100%
COc1cc(-c2cn[nH]c2)ccc1C(=O)Nc1ccc2c(c1)CCNCC2 [MELK-T1],IC50,MDA-MB-468; [6],> 10000 nM
same,IC50,Flt3,18 nM
same,IC50,ZR-75-1,> 10 µM
NS(=O)(=O)OC[C@@H]1C[C@@H](n2ccc3c(N[C@H]4CCc5ccccc54)ncnc32)C[C@@H]1O [MLN4924],rescue of inhibitor-induced MELK degradation by pretreatment,MELK [3],minimal effect
CC1(C)C(=O)N([C@H]2CCc3c(O)cccc32)c2nc(Nc3cccc(CN4CCCC4)c3)ncc21 [MRT199665],IC50,[4],0.91 µM
same,IC50,BT-549; [7],400 nM
same,IC50,BT-549; [8],310 nM
same,IC50,T-47D; [9],5.89 µM
same,IC50,T-47D; [10],0.62 µM
same,IC50,MDA-MB-468; [6],580 nM
same,IC50,MDA-MB-468; [11],160 nM
same,IC50,HCC70; [12],390 nM
same,IC50,HCC70; [13],75 nM
same,IC50,MCF7; [14],440 nM
same,IC50,ZR-75-1,4.83 µM
CN1CCN(c2ccc(-n3cc(-c4ccncc4OCC4CCNCC4)cn3)cc2)CC1 [NVS-MELK8a],IC50,[4],8.4 µM
same,IC50,"MELK [1]; Biochemical IC50 MELK, Z’-LYTE assay at [ATP]=apparent Km",11.9 nM
same,IC50,"MELK [1]; Note: MELK IC50, note column of Table 3",11.9 nM
same,IC50,"MELK [1]; Potency (MELK), measured by Z’LYTE biochemical assay, class symbols in Figure 2C",< 20 nM
same,IC50,BT-549; [7],8050 nM
same,IC50,BT-549; [8],4980 nM
same,IC50,T-47D; [9],> 10 µM
same,IC50,T-47D; [10],4.9 µM
same,IC50,MDA-MB-468; [6],5410 nM
same,IC50,MDA-MB-468; [11],2960 nM
same,IC50,HCC70; [12],5990 nM
same,IC50,HCC70; [13],4170 nM
same,IC50,MCF7; [14],6060 nM
same,IC50,"MCF7; MCF7, 168 h, read-out: 7-day antiproliferative IC50",2810 nM
same,IC50,ZR-75-1,> 10 µM
CC(C)C[C@H](NC(=O)[C@H](CCc1ccccc1)NC(=O)CN1CCOCC1)C(=O)N[C@@H](Cc1ccccc1)C(=O)N[C@@H](CC(C)C)C(=O)[C@@]1(C)CO1 [carfilzomib],rescue of inhibitor-induced MELK degradation by pretreatment,MELK [3],prevented degradation
CCC(C(=O)N1CCCCC1C(=O)OC(CCc1ccc(OC)c(OC)c1)c1ccccc1OCC(=O)NCCCCCCOc1cccc2c1C(=O)N(C1CCC(=O)NC1=O)C2=O)c1cc(OC)c(OC)c(OC)c1 (stereo not shown) [dTAG-13],duration of sustained degradation of FKBP12^F36V-MELK(sg3R),FKBP12^F36V-MELK(sg3R),up to 72 hours
same,time to efficient depletion of FKBP12^F36V-MELK(sg3R),FKBP12^F36V-MELK(sg3R),≤ 4 h
"CC[C@H](C(=O)N1CCCC[C@H]1C(=O)O[C@H](CCc1ccc(OC)c(OC)c1)c1ccccc1OCC(=O)NCCCCCCCCNc1cccc2c1C(=O)N(C1CCC(=O)NC1=O)C2=O)c1cc(OC)c(OC)c(OC)c1 (stereo partly drawn) [dTAG-36, (2S)-(1R)−3-(3,4-dimethoxyphenyl)−1-(2-(2-((8-((2-(2,6-dioxopiperidin-3-yl)−1,3-dioxoisoindolin-4-yl)amino)octyl)amino)−2-oxoethoxy)phenyl)propyl 1-((S)−2-(3,4,5-trimethoxyphenyl)butanoyl)piperidine-2-carboxylate]",duration of sustained degradation of FKBP12^F36V-MELK(sg3R),FKBP12^F36V-MELK(sg3R),up to 72 hours
same,time to efficient depletion of FKBP12^F36V-MELK(sg3R),FKBP12^F36V-MELK(sg3R),≤ 4 h
"CC[C@H](C(=O)N1CCCC[C@H]1C(=O)O[C@H](CCc1ccc(OC)c(OC)c1)c1ccccc1OCC(=O)NCCCCCCCCNc1ccc2c(c1)C(=O)N(C1CCC(=O)NC1=O)C2=O)c1cc(OC)c(OC)c(OC)c1 (stereo partly drawn) [dTAG-47, (2S)-(1R)−3-(3,4-dimethoxyphenyl)−1-(2-(2-((8-((2-(2,6-dioxopiperidin-3-yl)−1,3-dioxoisoindolin-5-yl)amino)octyl)amino)−2-oxoethoxy)phenyl)propyl 1-((S)−2-(3,4,5-trimethoxyphenyl)butanoyl)piperidine-2-carboxylate]",duration of sustained degradation of FKBP12^F36V-MELK(sg3R),FKBP12^F36V-MELK(sg3R),up to 72 hours
same,time to efficient depletion of FKBP12^F36V-MELK(sg3R),FKBP12^F36V-MELK(sg3R),≤ 4 h
same,growth in 9-day proliferation assay,[5],neither of the FKBP12^F36V-MELK(sg3R) MELK−/− clones exhibited growth impairment
